Among the data in patent US10239887B2, “Positive allosteric modulators of the muscarinic acetylcholine receptor M4” (Vanderbilt University, priority 2016, dated 2019) are EC50 and Emax values, retold here.

In this assay the target is T1, human mAChR M4 (Homo sapiens, UniProt P08173).
T1 sequence (P08173 1-479): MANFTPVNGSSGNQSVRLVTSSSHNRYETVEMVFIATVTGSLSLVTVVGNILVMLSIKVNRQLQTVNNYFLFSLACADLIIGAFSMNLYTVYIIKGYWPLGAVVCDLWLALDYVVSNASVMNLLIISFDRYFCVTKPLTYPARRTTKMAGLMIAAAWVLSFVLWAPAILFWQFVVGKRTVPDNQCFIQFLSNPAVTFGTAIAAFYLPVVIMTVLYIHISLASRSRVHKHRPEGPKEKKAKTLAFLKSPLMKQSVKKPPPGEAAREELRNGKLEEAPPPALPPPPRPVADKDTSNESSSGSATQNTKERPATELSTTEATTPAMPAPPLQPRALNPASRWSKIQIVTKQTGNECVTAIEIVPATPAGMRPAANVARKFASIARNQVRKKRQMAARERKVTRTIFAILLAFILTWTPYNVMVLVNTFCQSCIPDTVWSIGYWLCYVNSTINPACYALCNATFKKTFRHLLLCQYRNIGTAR
The experiment in a line: mAChR M4 cell-based functional assay (calcium flux), human M4. The note with it: Table 11; for EC50: Human M4 EC50 (nM), calcium flux, PAM activity with EC20 acetylcholine; for Emax: % ACh maximum at 30 μM.

On to `Cc1nnc2sc3c(NCc4ccc(C(=O)NC5CC5(C)C)c(Cl)c4)ncnc3c2c1C` (stereo not drawn) [Compound 319, 2-chloro-N-(2,2-dimethylcyclopropyl)-4-[[(3,4-dimethylpyrimido [4′,5′:4,5]thieno[2,3-c]pyridazin-8-yl)amino]methyl]benzamide], for which the EC50 was found to be 544 nM and the maximum response (Emax) was 75.6%.

Take `Cc1nnc2sc3c(NCc4ccc(C(=O)N[C@H](C)C(F)(F)F)c(Cl)c4)ncnc3c2c1C` [Compound 320, 2-chloro-4-[[(3,4-dimethylpyrimido [4′,5′:4,5]thieno[2,3-c]pyridazin-8-yl)amino]methyl]-N-[(1R)-2,2,2-trifluoro-1-methyl-ethyl] benzamide]: the concentration giving a half-maximal response (EC50) turned out to be 532 nM and the Emax came to 81.1%. On to `Cc1nnc2sc3c(NCc4ccc(C(=O)NC5CC(F)C5)c(Cl)c4)ncnc3c2c1C` (stereo not drawn) [Compound 321, 2-chloro-4-[[(3,4-dimethylpyrimido [4′,5′:4,5]thieno[2,3-c]pyridazin-8-yl)amino]methyl]-N-(3-fluorocyclobutyl) benzamide], for which the concentration giving a half-maximal response (EC50) was found to be 102 nM and the maximal response (Emax) was determined as 80.6%. The matching figures for `Cc1nnc2sc3c(NCc4ccc(C(=O)NC5CC(F)(F)C5)c(Cl)c4)ncnc3c2c1C` [Compound 322, 2-chloro-N-(3,3-difluorocyclobutyl)-4-[[(3,4-dimethylpyrimido [4′,5′:4,5]thieno[2,3-c]pyridazin-8-yl)amino]methyl]benzamide]: 197 nM and 81.6%. The matching figures for `Cc1nnc2sc3c(NCc4ccc(C(=O)NC(C)C5(CO)CC5)c(Cl)c4)ncnc3c2c1C` (stereo not drawn) [Compound 323, 2-chloro-4-[[(3,4-dimethylpyrimido [4′,5′:4,5]thieno[2,3-c]pyridazin-8-yl)amino]methyl]-N-[1-[1-(hydroxymethyl)cyclopropyl]ethyl]benzamide]: 449 nM and 76.3%.

Turning to `COCCNC(=O)c1ccc(CNc2ncnc3c2sc2nnc(C)c(C)c23)cc1Cl` [Compound 324, 2-chloro-4-[[(3,4-dimethylpyrimido [4′,5′:4,5]thieno[2,3-c]pyridazin-8-yl)amino]methyl]-N-(2-methoxyethyl) benzamide], the EC50 came to 164 nM and the Emax turned out to be 84%.

Take `CNC(=O)c1ccc(CNc2ncnc3c2sc2nnc(C)c(C)c23)cc1Cl` [Compound 325, 2-chloro-4-[[(3,4-dimethylpyrimido [4′,5′:4,5]thieno[2,3-c]pyridazin-8-yl)amino]methyl]-N-methyl-benzamide]: the 50% effective concentration (EC50) is 62.2 nM and the Emax was 78.8%.

`Cc1nnc2sc3c(NCc4ccc(-c5nccs5)cc4)ncnc3c2c1C` [Compound 326, 3,4-dimethyl-N-[(4-thiazol-2-ylphenyl)methyl]pyrimido[4′,5′:4,5] thieno[2,3-c]pyridazin-8-amine]: the concentration giving a half-maximal response (EC50) came out at 1070 nM and the Emax was 64.9%. The matching figures for `Cc1nnc2sc3c(NCc4cccc(-c5ncccn5)c4)ncnc3c2c1C` [Compound 327, 3,4-dimethyl-N-[(3-pyrimidin-2-ylphenyl)methyl]pyrimido [4′,5′:4,5]thieno[2,3-c] pyridazin-8-amine]: 1770 nM and 64.6%. On the same counts, the results for `Cc1nnc2sc3c(NCc4cccc(-n5cccn5)c4)ncnc3c2c1C` [Compound 328, 3,4-dimethyl-N-[(3-pyrazol-1-ylphenyl)methyl]pyrimido [4′,5′:4,5]thieno[2,3-c] pyridazin-8-amine] are 1970 nM and 63.6%.

For `Cc1nnc2sc3c(N4CC[C@H](Oc5ccnc(Cl)c5)C4)ncnc3c2c1C` [Compound 329, 8-[(3S)-3-[(2-chloro-4-pyridyl)oxy]pyrrolidin-1-yl]-3,4-dimethyl-pyrimido [4′,5′:4,5]thieno[2,3-c] pyridazine], the half-maximal effective concentration (EC50) stood at 107 nM and the maximal response (Emax) was 76.6%. In the case of `Cc1cc(O[C@H]2CCN(c3ncnc4c3sc3nnc(C)c(C)c34)C2)ccn1` [Compound 330, 3,4-dimethyl-8-[(3S)-3-[(2-methyl-4-pyridyl)oxy]pyrrolidin-1-yl]pyrimido [4′,5′:4,5]thieno[2,3-c] pyridazine], the concentration giving a half-maximal response (EC50) is 111 nM and the maximal effect (Emax) came out at 74.4%. For `Cc1nnc2sc3c(N4CC[C@H](Oc5ccnc(C(F)(F)F)c5)C4)ncnc3c2c1C` [Compound 331, 3,4-dimethyl-8-[(3S)-3-[[2-(trifluoromethyl)-4-pyridyl]oxy]pyrrolidin-1-yl]pyrimido [4′,5′:4,5]thieno[2,3-c] pyridazine], the EC50 was found to be 142 nM and the Emax is 80.6%. On the same counts, the results for `Cc1nnc2sc3c(N4CC[C@H](Oc5cccnc5)C4)ncnc3c2c1C` [Compound 332, 3,4-dimethyl-8-[(3S)-3-(3-pyridyloxy)pyrrolidin-1-yl] pyrimido[4′,5′:4,5]thieno [2,3-c]pyridazine] are 129 nM and 80.5%. The matching figures for `CNC(=O)c1cc(CN(C)c2ncnc3c2sc2nnc(C)c(C)c23)ccc1F` [Compound 333, 5-[[(3,4-dimethylpyrimido [4′,5′:4,5]thieno[2,3-c]pyridazin-8-yl)(methyl)amino]methyl]-2-fluoro-N-methyl-benzamide]: 1810 nM and 39.1%. Turning to `Cc1cc(CNc2ncnc3c2sc2nnc(C)c(C)c23)ccc1C(C)(C)O` [Compound 334, 2-[4-[[(3,4-dimethylpyrimido [4′,5′:4,5]thieno[2,3-c]pyridazin-8-yl)amino]methyl]-2-methyl-phenyl]propan-2-ol], the maximal response (Emax) turned out to be 90.6%. As for `Cc1cc(C(C)(C)O)ccc1CNc1ncnc2c1sc1nnc(C)c(C)c12` [Compound 335, 2-[4-[[(3,4-dimethylpyrimido [4′,5′:4,5]thieno[2,3-c]pyridazin-8-yl)amino]methyl]-3-methyl-phenyl]propan-2-ol], the Emax worked out at 71.1%. With `Cc1nnc2sc3c(N4CC[C@@H](Oc5ccnc(Cl)c5)C4)ncnc3c2c1C` [Compound 336, 8-[(3R)-3-[(2-chloro-4-pyridyl)oxy]pyrrolidin-1-yl]-3,4-dimethyl-pyrimido [4′,5′:4,5]thieno[2,3-c] pyridazine], the EC50 came out at 105 nM and the Emax was 76.9%. The matching figures for `Cc1nnc2sc3c(N4CC[C@@H](Oc5ccnc(C(F)(F)F)c5)C4)ncnc3c2c1C` [Compound 337, 3,4-dimethyl-8-[(3R)-3-[[2-(trifluoromethyl)-4-pyridyl]oxy]pyrrolidin-1-yl]pyrimido[4′,5′:4,5] thieno[2,3-c]pyridazine]: 116 nM and 80.2%. On the same counts, the results for `Cc1cc(O[C@@H]2CCN(c3ncnc4c3sc3nnc(C)c(C)c34)C2)ccn1` [Compound 338, 3,4-dimethyl-8-[(3R)-3-[(2-methyl-4-pyridyl)oxy]pyrrolidin-1-yl] pyrimido[4′,5′:4,5] thieno[2,3-c]pyridazine] are 73.4 nM and 74.6%. As to `Cc1nnc2sc3c(NC4CC(O)(c5ccc(F)cc5)C4)ncnc3c2c1C` (stereo not drawn) [Compound 339, 3-[(3,4-dimethylpyrimido [4′,5′:4,5]thieno[2,3-c]pyridazin-8-yl)amino]-1-(4-fluorophenyl) cyclobutanol], the EC50 amounted to 4900 nM and the Emax amounted to 50.9%.

For `Cc1nnc2sc3c(N4CC[C@@H](Oc5cccnc5)C4)ncnc3c2c1C` [Compound 340, 3,4-dimethyl-8-[(3R)-3-(3-pyridyloxy)pyrrolidin-1-yl]pyrimido[4′,5′:4,5] thieno[2,3-c]pyridazine], the EC50 stood at 101 nM and the Emax amounted to 72.9%.

Take `Cc1nnc2sc3c(NCc4ccc(-c5cccn5C)cc4)ncnc3c2c1C` [Compound 341, 3,4-dimethyl-N-[[4-(1-methylpyrrol-2-yl)phenyl]methyl]pyrimido[4′,5′:4,5] thieno[2,3-c]pyridazin-8-amine]: the 50% effective concentration (EC50) worked out at 1290 nM and the Emax worked out at 81.2%. On the same counts, the results for `Cc1cnn(C)c1-c1ccc(CNc2ncnc3c2sc2nnc(C)c(C)c23)cc1` [Compound 342, N-[[4-(2,4-dimethylpyrazol-3-yl)phenyl]methyl]-3,4-dimethyl-pyrimido[4′,5′:4,5] thieno[2,3-c]pyridazin-8-amine] are 1100 nM and 81.5%. On the same counts, the results for `CCn1nccc1-c1ccc(CNc2ncnc3c2sc2nnc(C)c(C)c23)cc1` [Compound 343, N-[[4-(2-ethylpyrazol-3-yl)phenyl]methyl]-3,4-dimethyl-pyrimido [4′,5′:4,5]thieno[2,3-c] pyridazin-8-amine] are 850 nM and 72.2%. On the same counts, the results for `Cc1nnc2sc3c(NCc4ccc(-c5ccnn5C)cc4F)ncnc3c2c1C` [Compound 344, N-[[2-fluoro-4-(2-methylpyrazol-3-yl)phenyl]methyl]-3,4-dimethyl-pyrimido[4′,5′:4,5]thieno [2,3-c]pyridazin-8-amine] are 824 nM and 70.9%. `Cc1nnc2sc3c(NCc4ccc(-n5cccn5)cc4)ncnc3c2c1C` [Compound 345, 3,4-dimethyl-N-[(4-pyrazol-1-ylphenyl)methyl] pyrimido[4′,5′:4,5]thieno [2,3-c]pyridazin-8-amine]: the 50% effective concentration (EC50) was found to be 830 nM and the Emax amounted to 87.1%.

Regarding `Cc1nnc2sc3c(N4CCC(Oc5ccnc(Cl)c5)CC4)ncnc3c2c1C` [Compound 346, 8-[4-[(2-chloro-4-pyridyl)oxy]-1-piperidyl]-3,4-dimethyl-pyrimido [4′,5′:4,5]thieno[2,3-c] pyridazine], the EC50 was found to be 749 nM and the Emax worked out at 56.8%.

As a reminder, the EC50 is the concentration giving half of the maximal effect. Usually Emax stands for the greatest response seen or fitted, relative to the assay's reference.
